Assays:
MDA-MB-435 = assay: NCI-60 screen, Melanoma MDA-MB-435; format: cell-based, human; details: for Growth of Cells (%): MDA-MB-435, 10^−5 M one dose
Method: The search for the cytotoxic activity of new derivatives usually starts with in vitro cell-based screening. Four compounds 2b (NSC D-745983/1), 3b (NSC D-766111/1), 4b (NSC D-785591/1) and 4c (NSC D-771706/1), selected by the National Cancer Institute were tested in the anticancer screen for a panel of approximately 60 human disease-oriented tumor cell lines, organized into subpanels derived from nine human cancer types—leukemia, melanoma, and cancers of the lung, colon, brain, breast, ovary, prostate, and kidney. They were initially tested at only one concentration of 10 µM (10^−5 M) for each cell line, which were inoculated and preincubated on a microtiter plate for […]. The results of the one-dose anticancer assay for the tested new compounds are reported as the percentage of the treated cell growth in comparison with untreated no-drug control. This allows for detection of the growth inhibition—values 0–100 and cytotoxicity; negative numbers mean cell death.
Antitumor activity in five dose testing (10^−4−10^−8 M) is expressed by three different dose–response parameters for each of the 60 human tumor cell lines. The GI50 value (molar concentration causing a half-growth inhibition), TGI (molar concentration required for total growth inhibition), which signifies the cytostatic effect, and LC50 (molar concentration of the compound required for 50% cell death). LC50 signifies the cytotoxic effect. […] Nevertheless, the selectivity for GI50 can be seen for several cell lines within subpanel leukemia (SR, log GI50 −6.36) and non-small cell lung cancer (NCI-H522, log GI50 −6.69).
The antitumor screening (NCI-60) was performed at the National Cancer Institute, Bethesda, USA. A total panel of approximately 60 human tumor cell lines derived from nine different cancer types (leukemia, non-small cell lung, colon, brain, melanoma, ovarian, renal, prostate and breast) formed the basis of this in vitro test. The origins and processing of the cell lines used in the study were described previously. First, the compounds were evaluated in a primary anticancer assay at 10^−5 M. Results for each tested compound are reported as the percent of growth of the treated cells. […] The human tumor cell lines of the cancer screening panel were grown in an RMPI 1640 medium containing 5% fetal bovine serum and 2 mM of L-glutamine. Each cell line was inoculated and preincubated at 37 °C, 5% CO2, 95% air and 100% relative humidity for 24 h, before the addition of the test compound into 96-well microtiter plates in 100 µL at plating densities ranging from 5000 to 40,000 cells/well. The density of inoculum depends on the type of tumor cell and its growth characteristics. The screened compounds were solubilized in dimethyl sulfoxide at 400-fold the desired final concentration and stored frozen. At the time of the test agents’ addition, an aliquot of frozen concentrate was thawed and diluted to twice the desired final concentration with complete medium containing 50 µg/mL gentamicin. Next, the test compounds were evaluated at the four additional 10-fold dilutions to reach the final concentrations plus control. Aliquots of 100 µL of the different dilutions (100, 10, 1, […] µM/mL) of the tested compounds were added to microtiter wells, and the culture was incubated for 48 h under the same conditions. Cell were fixed in situ by the addition of 50 µL of cold 50% trichloroacetic acid and incubated for 60 min at 4 °C. The supernatant was discarded; plates were washed five times with water and air-dried. Sulforhodamine B at 0.4% in 1% acetic acid, 100 µL, was added to each well, then plates were incubated for 10 min at room temperature. Unbound dye was removed by washing five times with 1% acetic acid and air dried. The protein-bound stain was solubilized with a […] trizma base and the absorbance was read on an automated plate reader. A wavelength of 515 nm was used to read optical densities. […]

CHO-K1 = assay: MTT cell viability assay, CHO-K1; format: cell-based, Chinese Hamster; details: Cricetulus griseus; CHO-K1 normal cells, MTT, 72 h, mean ± SD
Method: Twelve compounds (2a-e, 3a-d and 4a-c) at a concentration range of 50–5000 μM were tested for their antiproliferative potential against four human cancer cell lines (A375—melanotic melanoma, C32—amelanotic melanoma, DU145—prostate cancer androgen-independent, MCF-7/WT—breast adenocarcinoma) and two normal cell lines: Chinese Hamster Ovary (CHO-K1) and immortalized human keratinocytes from histologically normal skin (HaCaT).
To determine the antiproliferative activity of newly synthesized compounds, the following cell lines were used: human melanotic melanoma cell line (A375), human amelanotic melanoma cell line (C32), human breast adenocarcinoma cell line (MCF-7/WT), human prostate cancer androgen-independent (DU145) and two normal cell lines: hamster ovarian (CHO-K1) and immortalized human keratinocytes from histologically normal skin (HaCaT). The cells were obtained from the cell line bank of the Department of Molecular and Cellular Biology, Wroclaw Medical University. A375, C32, MCF-7/WT, DU145 and HaCaT cells were grown in a monolayer cultured in Dulbecco’s Modified Eagle’s Medium (DMEM, Sigma-Aldrich, Poznań, Poland), supplemented with 10% of fetal bovine serum (FBS, Gibco, Paisley, UK) and 1% of antibiotics (penicillin/streptomycin, Sigma-Aldrich) and CHO-K1 were grown in HAM’s F-12 medium (Sigma-Aldrich), supplemented with 10% fetal bovine serum (FBS, Gibco) and 1% of antibiotics (penicillin/streptomycin, Sigma-Aldrich). Cell lines were cultured in the polystyrene flasks 25 or 75 cm^2 (Thermo Fisher Scientific, Waltham, MA, USA), which were stored in 37 °C and 5% CO2 in a humidified 95% atmosphere (SteriCult, Thermo Scientific, Alab). The cell medium was exchanged twice a week. The exponentially growing cells were used throughout the experiments. The cells were rinsed with phosphate-buffered saline (PBS, Sigma-Aldrich) and trypsinized by Trypsin-EDTA 0.25% solution (Sigma-Aldrich).
The influence of the compounds was performed in a monolayer culture on cancer and normal cells. Compounds were initially dissolved in DMSO; further dilutions of the compound were performed in Dulbecco’s Modified Eagle’s Medium supplemented with 10% FBS. Compounds were tested in a 50–5000 µM concentration range. In the in vitro experiments, the concentrations of DMSO in the final solution of the compounds were used 0.05%; 0.1%; 0.5%; 1%, respectively.
Cell viability was determined using the MTT colorimetric assay. All cell lines were seeded into 96-well plates to a density of 3 × 10^4 cells/well. After 24 h, the culture supernatants were removed and appropriate dilutions of compounds in the culture medium (200 µL/well) were added to the cells’ monolayer cultures and incubated for an additional 72 h. After 72 h of exposition to the compounds and the removal of the culture medium, cell viability was determined by reducing the yellow dye 3-(4,5-dimethyl-2-thiazol)-2,5-diphenyl-2H-tetrazolium bromide (MTT assay, Sigma Saint Louis, MO, USA; In Vitro Toxicology Assay) to a blue formazan product. The absorbance of the resulting solutions in three duplicate experiments was measured at the wavelength of 560 nm in a microplate reader (EnSpire, Perkin Elmer, Kraków, Poland). MTT assay is a colorimetric method that estimates the rate of metabolism in viable cells. Absorbance is directly proportional to the number of viable cells. All the experiments were performed three times and the mean absorbance values were calculated. The methodology for the evaluation of the growth of human cancer and normal cells was described previously. The cell viability in each group was expressed as a percentage of control (untreated) cells.

MCF7 = assay: NCI-60 screen, Breast Cancer MCF7; format: cell-based, human; details: for Growth of Cells (%): MCF7, 10^−5 M one dose

| Compound | Growth of Cells (%) (MDA-MB-435) | IC50 (CHO-K1) [µM] | Growth of Cells (%) (MCF7) | GI50 (MDA-MB-435; Homo sapiens, MDA-MB-435, five doses 10^−4–10^−8 M) [µM] | CC50 (MDA-MB-435; Homo sapiens, MDA-MB-435, five doses 10^−4–10^−8 M, read-out: log LC50 (the source's name) (converted)) [µM] | log TGI (MDA-MB-435; MDA-MB-435, five doses 10^−4–10^−8 M) [log M] | GI50 (MCF7; Homo sapiens, MCF7, five doses 10^−4–10^−8 M) [µM] | CC50 (MCF7; Homo sapiens, MCF7, five doses 10^−4–10^−8 M, read-out: log LC50 (the source's name) (converted)) [µM] | log TGI (MCF7; MCF7, five doses 10^−4–10^−8 M) [log M] |
| --- | --- | --- | --- | --- | --- | --- | --- | --- | --- |
| O=c1[nH]c(C(F)(F)F)nc2c1sc(=S)n2-c1ccccc1 [Compound 2b, 3-phenyl-2-thioxo-5-(trifluoromethyl)-2,3-dihydro[1, 3]thiazolo[4,5-d]pyrimidin-7(6H)-one] | 114.64 | 319 ± 13.1 | 111.19 | – | – | – | – | – | – |
| FC(F)(F)c1nc(Cl)c2sc(=S)n(-c3ccccc3)c2n1 [Compound 3b, 7-chloro-3-phenyl-5-(trifluoromethyl)[1, 3]thiazolo[4,5-d]pyrimidine-2(3H)-thione] | 6.26 | 75.5 ± 1.6 | 22.84 | 1.86 | 7.41 | −5.43 | 2.24 | 57.5 | −5.25 |
| CCNc1nc(C(F)(F)F)nc2c1sc(=S)n2-c1ccccc1 [Compound 4b, 7-(ethylamino)-3-phenyl-5-(trifluoromethyl)[1, 3]thiazolo[4,5-d]pyrimidine-2(3H)-thione] | 112.84 | 237 ± 10.1 | 96.38 | – | – | – | – | – | – |
| Fc1ccc(CNc2nc(C(F)(F)F)nc3c2sc(=S)n3-c2ccccc2)cc1 [Compound 4c] | 102.86 | 549 ± 24 | 98.77 | – | – | – | – | – | – |

— article PMC8778818, “Synthesis, Structural Characterization and Anticancer Activity of New 5-Trifluoromethyl-2-thioxo-thiazolo[4,5-d]pyrimidine Derivatives” (Pharmaceuticals, 2022)
